# Test system: Neisseria gonorrhoeae, GC525 (NG-2888)
# Assay: in-vitro antibacterial activity, microbroth dilution MIC susceptibility testing
# Format: cell-based
# Parameters: unit: ug/mL
# Conditions: Neisseria gonorrhoeae, microbroth dilution in gonococcal broth, 20-24 hours at 35 C, lowest concentration preventing visible growth, read-out: MIC
# How it was run: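 Broth microdilution in gonococcal broth, inoculum ~5×10^5 cfu/mL, 20-24 h at 35 C in humidified CO2; compounds from 2 mg/mL DMSO stocks over 64-0.06 and 1-0.001 ug/mL two-fold series. MIC is the lowest concentration preventing visible growth, read visually; duplicates differing one well give the lower value, two wells the middle value.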
row,MIC [µg/mL],SMILES
1,8,"CCNC(=O)Nc1nc2cc(-c3cccnc3)cc(C(=O)N(Cc3ccncc3)CC3CCCO3)n2n1 (stereo not shown) [Example 92, 2-(3-Ethyl-ureido)-7-pyridin-3-yl-[1,2,4]triazolo[1,5-a]pyridine-5-carboxylic acidpyridin-4-ylmethyl-(tetrahydro-furan-2-ylmethyl)-amide]"
2,2,"CCNC(=O)Nc1nc2cc(-c3cccnc3)cc(C(=O)NC(C)c3ccncc3)n2n1 (stereo not shown) [Example 93, 2-(3-Ethyl-ureido)-7-pyridin-3-yl-[1,2,4]triazolo[1,5-a]pyridine-5-carboxylic acid (1-pyridin-4-yl-ethyl)-amide]"
3,32,"CCNC(=O)Nc1nc2cc(-c3ccncc3Cl)cc(C(=O)NCC)n2n1 [Example 95, 7-(3-Chloro-pyridin-4-yl)-2-(3-ethyl-ureido)-[1,2,4]triazolo[1,5-a]pyridine-5-carboxylic acid ethylamide]"
4,2,"CCNC(=O)Nc1nc2cc(-c3ccc(OC)nc3)cc(C(=O)NCC)n2n1 [Example 96, 2-(3-Ethyl-ureido)-7-(6-methoxy-pyridin-3-yl)-[1,2,4]triazolo[1,5-a]pyridine-5-carboxylic acidethylamide]"
5,2,"CCNC(=O)Nc1nc2cc(-c3cnc(OC)nc3OC)cc(C(=O)NCC)n2n1 [Example 98, 7-(2,4-Dimethoxy-pyrimidin-5-yl)-2-(3-ethyl-ureido)-[1,2,4]triazolo[1,5-a]pyridine-5-carboxylic acid ethylamide]"
6,8,"CCNC(=O)Nc1nc2cc(-c3cccc(C(F)(F)F)c3)cc(C(=O)NCC)n2n1 [Example 99, 2-(3-Ethyl-ureido)-7-(3-trifluoromethyl-phenyl)-[1,2,4]triazolo[1,5-a]pyridine-5-carboxylic acid ethylamide]"
7,> 64,"CCNC(=O)Nc1nc2cc(-c3ccc(OC)cc3OC)cc(C(=O)NCC)n2n1 [Example 102, 7-(2,4-Dimethoxy-phenyl)-2-(3-ethyl-ureido)-[1,2,4]triazolo[1,5-a]pyridine-5-carboxylic acid ethylamide]"
8,> 64,"CCNC(=O)Nc1nc2cc(-c3cc(C)c(OC)c(C)c3)cc(C(=O)NCC)n2n1 [Example 103, 2-(3-Ethyl-ureido)-7-(4-methoxy-3,5-dimethyl-phenyl)-[1,2,4]triazolo[1,5-a]pyridine-5-carboxylic acid ethylamide]"
9,16,"CCNC(=O)Nc1nc2cc(-c3cccnc3)cc(C(=O)NCCN(C)C)n2n1 [Example 105, 2-(3-Ethyl-ureido)-7-pyridin-3-yl-[1,2,4]triazolo[1,5-a]pyridine-5-carboxylic acid (2-dimethylamino-ethyl)-amide]"
10,> 64,"CCNC(=O)Nc1nc2cc(-c3cccnc3)cc(C(=O)NCc3ccc(OC)c(OC)c3)n2n1 [Example 106, 2-(3-Ethyl-ureido)-7-pyridin-3-yl-[1,2,4]triazolo[1,5-a]pyridine-5-carboxylic acid 3,4-dimethoxy-benzylamide]"
11,> 64,"CCNC(=O)Nc1nc2cc(-c3cccnc3)cc(C(=O)NCCCN)n2n1 [Example 107, 2-(3-Ethyl-ureido)-7-pyridin-3-yl-[1,2,4]triazolo[1,5-a]pyridine-5-carboxylic acid (3-amino-propyl)-amide]"
12,2,"CCCC(=O)c1cc(-c2cccnc2)cc2nc(NC(=O)NCC)nn12 [Example 108, 1-(5-Butyryl-7-pyridin-3-yl-[1,2,4]triazolo[1,5-a]pyridine-2-yl)-3-ethyl-urea]"
13,2,"CCNC(=O)Nc1nc2cc(-c3cccnc3)cc(C(=O)C3CC3)n2n1 [Example 109, 1-(5-Cyclopropanecarbonyl-7-pyridin-3-yl-[1,2,4]triazolo[1,5-a]pyridine-2-yl)-3-ethyl-urea]"
14,4,"CCNC(=O)Nc1nc2cc(-c3cccnc3)cc(C(=O)Cc3ccccc3)n2n1 [Example 110, 1-Ethyl-3-(5-phenylacetyl-7-pyridin-3-yl-[1,2,4]triazolo[1,5-a]pyridine-2-yl)-urea]"
15,8,"CCNC(=O)Nc1nc2cc(-c3cccnc3)cc(C(=O)c3ccccc3)n2n1 [Example 111, 1-(5-Benzoyl-7-pyridin-3-yl-[1,2,4]triazolo[1,5-a]pyridine-2-yl)-3-ethyl-urea]"
16,8,"CCCC(=NOC)c1cc(-c2cccnc2)cc2nc(NC(=O)NCC)nn12 [Example 112, 1-Ethyl-3-[5-(1-methoxyimino-butyl)-7-pyridin-3-yl-[1,2,4]triazolo[1,5-a]pyridine-2-yl]-urea]"

row,MIC [µg/mL],SMILES
1,64,"CCNC(=O)Nc1cn2c(CN3CCCC3)cc(-c3cccnc3)cc2n1 [Example 113, 1-Ethyl-3-(7-pyridin-3-yl-5-pyrrolidin-1-ylmethyl-imidazo[1,2-a]pyridin-2-yl)-urea]"
2,64,"CCNC(=O)Nc1nc2cc(N3CCCC3)cc(C(=O)N3CCCC3)n2n1 [Example 121, 1-Ethyl-3-[5-(pyrrolidine-1-carbonyl)-7-pyrrolidin-1-yl-[1,2,4]triazolo[1,5-a]pyridin-2-yl]-urea]"
3,0.06,"CCNC(=O)Nc1nc2cc(-c3cccnc3)cc(-c3nc(CC)cs3)n2n1 [Example 122, 1-Ethyl-3-[5-(4-ethyl-thiazol-2-yl)-7-pyridin-3-yl-[1,2,4]triazolo[1,5-a]pyridin-2-yl]-urea]"
4,> 64,"CCNC(=O)Nc1nc2cc(-c3cccnc3)cc(-c3cnc(CC)s3)n2n1 [Example 123, 1-Ethyl-3-[5-(2-ethyl-thiazol-5-yl)-7-pyridin-3-yl-[1,2,4]triazolo[1,5-a]pyridin-2-yl]-urea]"
5,0.06,"CCNC(=O)Nc1nc2cc(-c3cccnc3)cc(-c3cncs3)n2n1 [Example 125, 1-Ethyl-3-[5-(thiazol-5-yl)-7-pyridin-3-yl-[1,2,4]triazolo[1,5-a]pyridin-2-yl]-urea]"
6,32,"CCNC(=O)Nc1nc2cc(-c3cccnc3)cc(-c3ccccn3)n2n1 [Example 127, 1-Ethyl-3-(5-pyridin-2-yl-7-pyridin-3-yl-[1,2,4]triazolo[1,5-a]pyridin-2-yl)-urea]"
7,> 64,"CCNC(=O)Nc1nc2cc(-c3cccnc3)cc(-c3ncccn3)n2n1 [Example 128, 1-Ethyl-3-(7-pyridin-3-yl-5-pyrimidin-2-yl-[1,2,4]triazolo[1,5-a]pyridin-2-yl)-urea]"
8,1,"CCNC(=O)Nc1nc2cc(-c3cccnc3)cc(-c3cnc(C)o3)n2n1 [Example 129, N-Ethyl-N′-[5-(2-methyl-1,3-oxazol-5-yl)-7-pyridin-3-yl[1,2,4]triazolo[1,5-a]pyridin-2-yl]urea]"
9,32,"CCNC(=O)Nc1nc2cc(-c3cccnc3)cc(N3CCN(C)CC3)n2n1 [Example 131, 1-Ethyl-3-[5-(4-methyl-piperazin-1-yl)-7-pyridin-3-yl-[1,2,4]triazolo[1,5-a]pyridin-2-yl]-urea]"
10,2,"CCNC(=O)Nc1nc2cc(-c3cccnc3)cc(-c3cnc(C)s3)n2n1 [Example 132, 1-Ethyl-3-[5-(2-methyl-thiazol-5-yl)-7-pyridin-3-yl-[1,2,4]triazolo[1,5-a]pyridin-2-yl]-urea]"
11,8,"CCNC(=O)Nc1nc2cc(-c3cccnc3)cc(-c3cnc(C)n3C)n2n1 [Example 135, N-[5-(1,2-Dimethyl-1H-imidazol-5-yl)-7-pyridin-3-yl[1,2,4]triazolo[1,5-a]pyridin-2-yl]-N′-ethylurea]"
12,4,"CCNC(=O)Nc1nc2cc(-c3cccnc3)cc(-c3cncn3C)n2n1 [Example 136, N-ethyl-N′-[5-(1-methyl-1H-imidazol-5-yl]-7-pyridin-3-yl[1,2,4]triazolo[1,5-a]pyridin-2-yl]urea]"
13,32,"CCNC(=O)Nc1nc2cc(-c3cccnc3)cc(N(C)C3CCCCC3)n2n1 [Example 137, N-[5-[Cyclohexyl(methyl)amino]-7-pyridin-3-yl[1,2,4]triazolo[1,5-a]pyridin-2-yl]-N′-ethylurea]"
14,0.5,"CCNC(=O)Nc1nc2cc(-c3cccnc3)cc(NC3CCCCC3)n2n1 [Example 138, 1-(5-Cyclohexylamino-7-pyridin-3-yl-[1,2,4]triazolo[1,5-a]pyridin-2-yl)-3-ethyl-urea]"
15,1,"CCNC(=O)Nc1nc2cc(-c3cccnc3)cc(-c3cnc(CC)o3)n2n1 [Example 139, N-Ethyl-N′-[5-(2-ethyl-1,3-oxazol-5-yl)-7-pyridin-3-yl[1,2,4]triazolo[1,5-a]pyridin-2-yl]urea]"
16,64,"CCNC(=O)Nc1nc2cc(-c3cccnc3)cc(-c3cnc(C(C)C)s3)n2n1 [Example 140, 1-Ethyl-3-[5-(2-i-propyl-thiazol-5-yl)-7-pyridin-3-yl-[1,2,4]triazolo[1,5-a]pyridin-2-yl]-urea]"

# Same assay, conditions: microbroth dilution in gonococcal broth, 20-24 hours at 35 C, lowest concentration preventing visible growth
row,MIC [µg/mL],SMILES
1,64.0,"CCNC(=O)Nc1nc2cc(-c3cccnc3)cc(C(=O)N(CC)CC)n2n1 [Example 104, 2-(3-Ethyl-ureido)-7-pyridin-3-yl-[1,2,4]triazolo[1,5-a]pyridine-5-carboxylic acid diethylamide]"
2,>64.0,"CCOC(=O)c1cc(-c2cnc(N(C)C)nc2)cc2nc(NC(=O)NC(C)C)cn12 [Example 116, 7-(2-Dimethylamino-pyrimidin-5-yl)-2-(3-isopropyl-ureido)-imidazo[1,2-a]pyridine-5-carboxylic acid ethyl ester]"
3,>64.0,"CCNC(=O)Nc1cn2c(C(=O)OCC)cc(-c3ccc(OC)cc3)cc2n1 [Example 118, 2-(3-Ethyl-ureido)-7-(4-methoxy-phenyl)-imidazo[1,2-a]pyridine-5-carboxylic acid ethyl ester]"
4,64.0,"CCNC(=O)Nc1nc2cc(-c3cccnc3)cc(-c3cnc(CC)s3)n2n1 [Example 124, 1-ethyl-3-[5-(2-ethyl-thiazol-5-yl)-7-pyridin-3-yl-[1,2,4]triazolo[1,5-a]pyridin-2-yl]-urea]"
5,16.0,"CCNC(=O)Nc1nc2cc(-c3cccnc3)cc(-c3cccnc3)n2n1 [Example 126, 1-(5,7-Di-pyridin-3-yl-[2,4]triazolo[1,5-a]pyridin-2-yl)-3-ethyl-urea]"

# — patent US7524860B2, “Antibacterial agents” (Pfizer Inc., priority 2004, dated 2009)
